Measured values as given in PMC12636026 (Journal of the American Chemical Society, 2025).
Bridges are numbered along the chain shown (N, C = ends). Roman numbers before positions name the chains, in order.

Key:
[1] = Kinetics of Tb(III) binding and coiled coil folding (CD 222 nm / Tb emission 545 nm); type: physicochemical; conditions: 0.1, 1.0 and 10 μM, 10 mM HEPES pH 7.0, 1.0 equiv TbCl3
[2] = Circular dichroism folding (% folded from ellipticity at 222 nm); type: physicochemical; conditions: CD 222 nm, no metal, 10 mM HEPES pH 7.0, 293 K, triplicate
CD thermal unfolding = type: physicochemical; conditions: apo, 10 μM, 10 mM HEPES pH 7.0, CD 222 nm
Experimental: 2 (A) CD spectra of 0.1 μM and (B) 10 μM KH2-20X and MB1-2 trimers in the absence (apo; KH2-20X, orange; MB1-2, blue) and presence (holo; KH2-20X + TbCl3, red; MB1-2 + TbCl3, turquoise) of 1.0 equiv of TbCl3, recorded at 293 K. (C) CD thermal unfolding profiles of 10 μM trimers monitoring the molar ellipticity at 222 nm: apo MB1-2 (blue), Tb(MB1-2)3 (turquoise), apo KH2-20X (orange), and Tb(KH2-20X) (red). Solid lines indicate forward heating, and dotted lines indicate reverse cooling. All experiments were conducted in HEPES buffer at pH 7.0, with buffer concentrations adjusted to match peptide concentration (0.1 and 10.0 mM for 0.1 and 10.0 μM peptide, respectively). […]
10 µM peptide in 10 mM HEPES, 0.1 mM TbCl₃ into 1 µM peptide in 1 mM HEPES, and 0.01 mM TbCl₃ into 0.1 µM peptide in 0.1 mM HEPES (all at pH 7.0). […] The observed ellipticity was then converted into molar ellipticity, where the helical content was calculated as the percentage folded, based on the theoretical maximum ellipticity at 222 nm as reported by Scholtz et al.9 Thermal unfolding data was recorded by monitoring the ellipticity at 222 nm of a 10 μM trimer concentration of MB1-2 and KH2-20X solution in 10 mM HEPES buffer (pH 7.0) in the absence and presence of 10 μM TbCl3, using a Jasco Peltier Type MPTC-513 temperature controller ramping from 20 °C to 85 °C in 0.1°C increments, heating at 1 °C/min. […]

[3] = Native mass spectrometry metalation; type: binding; conditions: 10 μM trimer : 10 μM metal, 50 mM ammonium acetate pH 6.8, room temperature, 60 min
Excerpt: This preserves noncovalent interactions enabling coiled coil complexes to be detected. […] (C) Representative full Tb(III) emission spectra for each titration point. λex = 280 nm. […] Error bars determined from standard deviation error of three independent repeat experiments. […] page 4: […] Upon successful purification, removal of Tb(III) was confirmed on a small aliquot of cross-linked peptide by fluorescence spectroscopy. Here the absence of enhanced/sensitized Tb(III) emission, at 545 nm, is consistent with complete […] Stock solutions preparation: In all experiments, the concentration of peptide stock […] Once samples were prepared, the concentration of the solutions were checked by UV vis and adjust if necessary. All GdCl3 and TbCl3 stock solutions were freshly […] solutions were also freshly prepared and determined in a similar fashion using EDTA and xylenol orange indicator solution.6 The equivalence of metal added was then adjust to the exact concentration of peptide in the sample. […] in volumetric glassware using MilliQ water. Native mass spectrometry (MS): […] ammonium acetate pH 6.8. The concentrations of the peptides were measured using the […] Metal stock solutions were initially prepared by […] These stock solutions were then […] […] The observed molecular weights were calculated from an average of 3 charge states. […]

Question: Which “rate of Tb(III) binding (sensitized emission 545 nm)” value [1] does the source give for “I: Ac-GIAAIEQKIAANEWKDAAIEQKIAAIEQKIAAIEQKG-NH2 / II: Ac-GIAAIEQKIAANEWKDAAIEQKIAAIEQKIAAIEQKG-NH2 / III: Ac-GIAAIEQKIAANEWKDAAIEQKIAAIEQKIAAIEQKG-NH2 (amide I:15-II:20, I:20-III:15, II:15-III:20) [KH2-20X]” here?
Answer: rapid across all tested concentrations

Question: And the “% apo folding (10.0 μM trimer)” value [2]?
Answer: 96 ± 3%

Question: What about the “folding over the temperature range 20-85 °C” value (CD thermal unfolding) of the same substance?
Answer: remain well-folded throughout the entire temperature range

Question: What about the “% metalation by native mass spectrometry” value [3] of the same substance?
Answer: 95–100%
